According to patent US8354451B2, “Treatment of microbial infections with compounds that inhibit 4-hydroxyphenylpyruvate dioxygenase” (The UWM Research Foundation, Inc., priority 2009, dated 2013):

Columns and labels:
Format in all cases: cell-based, Burkholderia cenocepacia
[1] = test system: B. cenocepacia C5424 and MH1J; assay: Growth rate, BIOSCREEN growth curve analysis; settings: 10 μM and 100 μM NTBC, OD600 over 24 h
Method: FIG. 2. Effect of NTBC on growth and viability of B. cenocepacia. B. cenocepacia C5424 (upper graph) and MH1J (lower graph) were cultured in 300 ml of LB by triplicates. Cultures were started at an OD600 of 0.1 and OD600 readings were taken every 30 min over 24 h using the BIOSCREEN® system.
To assess growth rate, overnight cultures were inoculated into fresh medium with a starting optical density at 600 (OD600) of 0.1. Growth rates were determined in 100-well microtiter plates by use of a BIOSCREEN® C automated microbiology growth curve analysis system (MTX Lab Systems, Inc., Vienna, Va.) under high-amplitude shaking conditions.
(§1) B. cenocepacia C5424 and MH1J were cultured in the presence of 10 μM and 100 μM NTBC and assayed for growth rates using the BIOSCREEN® system (FIG. 2). Bacterial viability was examined under similar treatment conditions by fluorescence microscopy using the LIVE/DEAD® kit (Molecular Probes, Invitrogen).

B. cenocepacia MH1J = assay: Pigment (pyomelanin) production, supernatant OD597; settings: 24 h culture
Method: FIG. 1. NTBC decreases pigment production in B. cenocepacia. B. cenocepacia strains C5424 and MH1J were cultured in presence or absence of NTBC in flasks during 24 h. An aliquot of this culture was used to take the picture in A. To quantify pigment production, 1 ml of culture was centrifuged at 14,000 rpm by 5 min to pellet bacteria. The pigment in the supernatant was quantified at an OD597 nm. The graphic (B) was generated with the results of two independent experiments. Values represent the mean±SD of two independent experiments. ***, p<0.001, Mock (untreated) versus treated with 10 and 100 μM of NTBC.
To test the ability of NTBC 2-[2-nitro-4-(trifluoromethyl)benzoyl]-1,3-cyclohexanedione (NTBC) to decrease pigment production by Burkholderia cenocepacia strains, two strains with the ability to produce pigment were used: (i) the previously described B. cenocepacia C5424, and (ii) B. cenocepacia MH1J, strain with susceptibility to gentamicin.
Bacteria were grown in 10 ml of Luria-Bertani (LB) broth at 37° C. with shaking, using 250 mL-flasks. B. cenocepacia C5424 produced significant pigment at 24 h of culture and MH1J required 48 h to form high pigment production. To quantify the pigment produced by both strains a 1 mL culture was taken at 24 hrs of incubation and the bacteria were pelleted by centrifugation at 14,000 r.p.m. for 5 min. […]

[2] = test system: B. cenocepacia C5424 and MH1J; assay: Bacterial viability, LIVE/DEAD fluorescence microscopy; settings: 10 μM and 100 μM NTBC, 24 h culture
Method: Viability was tested by the LIVE/DEAD® method (Molecular probes, Invitrogen). 1 mL of bacterial culture was collected at 24 h, washed twice with phosphate buffered saline (PBS), and the pellet resuspended in 1 mL of Dubecco's modified Eagle's medium (DMEM) supplemented with 10% fetal bovine serum (FBS). Bacteria were incubated for 15 min at RT in the dark, 5 mL of the culture was used for fluorescence microscopy. Images were acquired using a QIMAGING® (Burnaby, British Columbia, Canada) cooled charge coupled-device camera on an Axioscope 2 (Carl Zeiss, Thornwood, N.Y.) microscope with an X100/1.3 numerical aperture Plan-Neofluor objective and a 50-W mercury arc lamp. Images were digitally processed using the Northern Eclipse version 6.0 imaging analysis software (Empix Imaging, Mississauga, Ontario, Canada).
as §1

O=C1CCCC(=O)C1C(=O)c1ccc(C(F)(F)F)cc1[N+](=O)[O-] [NTBC, 2-(2-nitro-4-trifluoromethylbenzoyl)-1,3-cyclohexanedione]
effect on growth rate [1]: does not affect growth rate | pigment production relative to untreated MH1J (B. cenocepacia MH1J; 10 μM NTBC): 31.53±3.08% | pigment production relative to untreated MH1J (B. cenocepacia MH1J; 100 μM NTBC): 36.41±1.80% | effect on viability [2]: does not affect growth rate or viability
